Results from article PMC4955146, “Virtual screening and experimental validation of novel histone deacetylase inhibitors” (BMC Pharmacology & Toxicology, 2016).

System: HDACs in HeLa nuclear extracts
Assay: HDAC inhibitory activity assay (fluorometric HDAC inhibitor drug screening kit)
Type: biochemical
Conditions: percentage of the positive control, inhibitor control at 20 μM
Experimental: The HDAC inhibitor drug screening kit (k340-100, BioVision, CA, USA) was used to measure HDAC inhibitory activities of the candidate compounds according to the manufacturer’s instructions. The candidate compounds, assay buffer, and HDAC fluorometric substrate, which comprises an acetylated lysine side chain, were added to HeLa nuclear extracts in a 96-well plate and incubated at 37 °C for 30 min. The reaction was stopped by adding lysine developer, and the mixture was incubated for another 30 min at 37 °C. An additional positive control included incubation with double-distilled water, and the inhibitor control consisted of incubation with Trichostatin A (TSA) at 20 μM. HDAC activities were quantified by a fluorescence plate reader (POLARstar OPTIMA, BMG, BRD) with excitation at 370 nm and emission at 450 nm.

Trichostatin A [TSA]
relative enzymatic activity: 12%
